Measurements reported in US10562891B2, “Quinazolinones as PARP14 inhibitors” (Ribon Therapeutics Inc., priority 2017, dated 2020).
Where a name gives a salt, the structure may show the parent alone.

Molecular target: catalytic domain of human PARP14 (Homo sapiens (Human), UniProt Q460N5)
Experiment: Enzymatic assay for inhibition of PARP14 (DELFIA, auto-modification with biotin-NAD)
Type: biochemical
Settings: auto-modification of PARP14 by biotin-NAD, 50 nM PARP14, 3 μM biotin-NAD
In short: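 DELFIA auto-modification read-out: europium-streptavidin bound to biotin-NAD incorporated onto nickel-captured His-TEV PARP14 catalytic domain. Compound preincubated 30 min, then 50 nM enzyme with 3 μM biotin-NAD reacted 3 h, all at 25 °C, pH 8, then NAD quench. Percent inhibition normalized to rucaparib/DMSO wells, fitted (4- or 3-parameter) for IC50.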

Chain of catalytic domain of human PARP14 (Q460N5 1611-1801): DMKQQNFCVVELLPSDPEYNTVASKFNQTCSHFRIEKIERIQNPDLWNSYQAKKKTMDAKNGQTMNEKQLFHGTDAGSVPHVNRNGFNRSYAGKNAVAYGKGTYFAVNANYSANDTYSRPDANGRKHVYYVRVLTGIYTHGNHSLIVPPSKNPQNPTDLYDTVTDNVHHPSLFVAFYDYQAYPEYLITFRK

SMILES | IC50 [nM]
CO[C@H]1C[C@@H](Nc2cc3nc(CS[C@H]4CC[C@](C)(O)CC4)[nH]c(=O)c3c(F)c2F)C1 [Example 374] | < 1000
CC(=O)N1CCC(COc2cc(F)c3c(=O)[nH]c(CS[C@H]4CC[C@@](C)(O)CC4)nc3c2)CC1 [Example 417] | < 1000
O=c1[nH]c(CSC2CCOCC2)nc2cc(NC3CCCC3)cc(F)c12 [Example 184, 7-(cyclopentylamino)-5-fluoro-2-(((tetrahydro-2H-pyran-4-yl)thio)methyl)quinazolin-4(3H)-one] | < 1000
O=c1[nH]c(CSC2CCOCC2)nc2cc(OCC3CCOC3)cc(Br)c12 (stereo not shown) [Example 376] | < 1000
O=c1[nH]c(CSC2CCOCC2)nc2cc(NC3CCCCC3(F)F)cc(F)c12 (stereo not shown) [Example 345] | < 1000
Cc1cccc2c(=O)[nH]c(CSC3CCC(CN)CC3)nc12 (stereo not shown) [Example 64, 2-(((4-(Aminomethyl)cyclohexyl)thio)methyl)-8-methylquinazolin-4(3H)-one Trifluoroacetate] | < 1000
O=c1[nH]c(CSC2CCNCC2)nc2cc(NC3CCCCC3)cc(F)c12 [Example 248, 7-(Cyclohexylamino)-5-fluoro-2-((piperidin-4-ylthio)methyl)quinazolin-4(3H)-one] | < 1000
Cc1cccc2c(=O)[nH]c(CSC3CCN(C(=O)CCN)CC3)nc12 [Example 167, 2-(((1-(3-Aminopropanoyl)piperidin-4-yl)thio)methyl)-8-methylquinazolin-4(3H)-one Hydrochloride] | 1000 to 10000
O=c1[nH]c(CSC2CCS(=O)(=O)CC2)nc2cc(NC3CCCC3)cc(F)c12 [Example 270, 7-(Cyclopentylamino)-2-(((1,1-dioxidotetrahydro-2H-thiopyran-4-yl)thio)methyl)-5-fluoroquinazolin-4(3H)-one] | < 1000
CN1CC[C@H](SCc2nc3cc(NC4CCCC4)cc(F)c3c(=O)[nH]2)[C@@H](F)C1 (relative stereo) [Example 412] | < 1000
CC(=O)N1CCC(CNc2cc3nc(CS[C@H]4CC[C@H](O)CC4)[nH]c(=O)c3c(F)c2F)CC1 [Example 419] | < 1000
O=c1[nH]c(CSC2CCOCC2)nc2cc(NC3CCCC3)ncc12 [Example 189, 7-(cyclopentylamino)-2-(((tetrahydro-2H-pyran-4-yl)thio)methyl)pyrido[4,3-d]pyrimidin-4(3H)-one] | 1000 to 10000
O=c1[nH]c(CSC2CCNCC2)nc2cc(NCC3CCC3)cc(F)c12 [Example 261, 7-((Cyclobutylmethyl)amino)-5-fluoro-2-((piperidin-4-ylthio)methyl)quinazolin-4(3H)-one] | < 1000
O=c1[nH]c(CS[C@H]2CC[C@H](O)CC2)nc2cc(NC3CCCC3)c(F)cc12 [Example 293, 7-(Cyclopentylamino)-6-fluoro-2-(((trans-4-hydroxycyclohexyl)thio)methyl)quinazolin-4(3H)-one] | < 1000
O=c1[nH]c(CSC2CCOCC2)nc2cc(NCC3CC3)c(F)c(F)c12 [Example 337] | < 1000
O=c1[nH]c(CSC2CCNCC2)nc2cc(NC3CCCC3)cc(Cl)c12 [Example 206, 5-Chloro-7-(cyclopentylamino)-2-((piperidin-4-ylthio)methyl)quinazolin-4(3H)-one Hydrochloride] | < 1000
O=c1[nH]c(CSC2CCOCC2)nc2cc(NC3CCC3)cc(F)c12 [Example 251, 7-(Cyclobutylamino)-5-fluoro-2-(((tetrahydro-2H-pyran-4-yl)thio)methyl)quinazolin-4(3H)-one] | < 1000
C[C@]1(O)C[C@@H](COc2cc(F)c3c(=O)[nH]c(CSC4CCOCC4)nc3c2)C1 [Example 386] | < 1000
CC(=O)N1CCC(COc2cc(F)c3c(=O)[nH]c(CSC4CCOCC4)nc3c2)C1 (stereo not shown) [Example 367] | < 1000

Further lines, results first:

IC50 [nM] | SMILES
< 1000 | CN1CCOC(COc2cc(F)c3c(=O)[nH]c(CSC4CCOCC4)nc3c2)C1 (stereo not shown) [Example 414]
< 1000 | Cc1cccc2c(=O)[nH]c(CSC3CCN(Cc4ccc5cnn(C)c5c4)CC3)nc12 [Example 148, 8-Methyl-2-(((1-((1-methyl-1H-indazol-6-yl)methyl)piperidin-4-yl)thio)methyl)quinazolin-4(3H)-one trifluoroacetate]
< 1000 | Cc1cccc2c(=O)[nH]c(CS[C@H]3CC[C@H](CCN)CC3)nc12 [Example 181, 2-((((trans)-4-(2-aminoethyl)cyclohexyl)thio)methyl)-8-methylquinazolin-4(3H)-one]
> 10000 | O=c1[nH]c(CSC2CCOCC2)nc2cc(NC3CCCNC3)ccc12 (stereo not shown) [Example 127, 7-(3-Piperidylamino)-2-(tetrahydropyran-4-ylsulfanylmethyl)-3H-quinazolin-4-one]
< 1000 | Cc1ccc(Cl)c2c(=O)[nH]c(CSC3CCOCC3)nc12 [Example 34, 5-Chloro-8-methyl-2-(((tetrahydro-2H-pyran-4-yl)thio)methyl)quinazolin-4(3H)-one]
< 1000 | Cc1cccc2c(=O)[nH]c(CSC3CCN(C(=O)[C@@H](N)CCCCN)CC3)nc12 [Example 171, 2-(((1-(L-Lysyl)piperidin-4-yl)thio)methyl)-8-methylquinazolin-4(3H)-one Dihydrochloride]
< 1000 | Cc1ccc(F)c2c(=O)[nH]c(CSC3CCOCC3)nc12 [Example 8]
< 1000 | COc1ccc(CN2CCC(SCc3nc4c(C)cccc4c(=O)[nH]3)CC2)nc1 [Example 157, 2-(((1-((5-Methoxypyridin-2-yl)methyl)piperidin-4-yl)thio)methyl)-8-methylquinazolin-4(3H)-one bistrifluoroacetate]
1000 to 10000 | O=c1[nH]c(CSC2CCOCC2)nc2cc(Nc3ccccn3)ccc12 [Example 81, 7-(Pyridin-2-ylamino)-2-(((tetrahydro-2H-pyran-4-yl)thio)methyl)quinazolin-4(3H)-one]
< 1000 | CS(=O)(=O)N1CCC[C@@H](Nc2ccc3c(=O)[nH]c(CSC4CCOCC4)nc3n2)C1 [Example 201, (R)-7-((1-(methylsulfonyl)piperidin-3-yl)amino)-2-(((tetrahydro-2H-pyran-4-yl)thio)methyl)pyrido[2,3-d]pyrimidin-4(3H)-one]
1000 to 10000 | O=c1[nH]c(CSC2CCOCC2)nc2c(Cl)cccc12 [Example 5]
< 1000 | Cc1ccc(C(F)(F)F)c2c(=O)[nH]c(CSC3CCC(O)CC3)nc12 (stereo not shown) [Example 59, 2-(((4-Hydroxycyclohexyl)thio)methyl)-8-methyl-5-(trifluoromethyl)quinazolin-4(3H)-one]
< 1000 | Cc1cccc2c(=O)[nH]c(CSC3CCN(Cc4cncn4Cc4ccccc4)CC3)nc12 [Example 153, 2-(((1-((1-Benzyl-1H-imidazol-5-yl)methyl)piperidin-4-yl)thio)methyl)-8-methylquinazolin-4(3H)-one trifluoroacetate]
1000 to 10000 | Cc1cccc2c(=O)[nH]c(CSC3CCN(C)CC3)nc12 [Example 14, 8-Methyl-2-(((1-methylpiperidin-4-yl)thio)methyl)quinazolin-4(3H)-one]
< 1000 | O=c1[nH]c(CS[C@H]2CC[C@H](CO)CC2)nc2cc(NC3CCCCC3)ccc12 [Example 136, 7-(Cyclohexylamino)-2-(((trans-4-(hydroxymethyl)cyclohexyl)thio)methyl) quinazolin-4(3H)-one]
